Assay results from patent publication US5360613A, “Method of reducing blood levels of total cholesterol and low-density lipoprotein cholesterol” (Iowa State University Research Foundation, Inc., priority 1993, dated 1994).

Key:
[1] = Human dose-response study, body weight and body fat (Example V, Table E); assay type: in vivo, humans; details: for % Change After 8 Days, Body fat (%): linear effect NS; for % Change After 8 Days, Weight: linear effect p .32
Procedure: (§1) Higher dose levels than in Example IV of Ca-HMB were tested in humans. The objective was to obtain an indication of whether higher doses could be safely administered, and also whether higher doses might provide a greater reduction in total cholesterol and LDL cholesterol.
(§2) Normal humans were used in the study. Ca-HMB was administered in 250 mg capsules, and the subjects were instructed to take the capsules in 4 equal doses daily. No control of diet was attempted except they were instructed to eat as they normally would. On alternate days the subjects had blood drawn before the morning meal and before they took the morning HMB dose. Four subjects were studied for dose level of 05., 1, 2 and 4 grams per day.
(§3) Results from all samples of each subject were subjected to linear regression and the slope and intercept used to calculate the % change in concentration after 8 days on treatment. The percentage changes were then subjected to ANOVA-regression to determine if there was a linear effect of dosage on the parameter. The dose-response effect (p<) is listed in the linear effect column of Table E.

[2] = Hygroscopicity of HMB salts; assay type: physicochemical; details: compared with sodium or potassium salts
blood cholesterol = assay: Human dose-response study, blood cholesterol, triglycerides and glucose (Example V, Table E); assay type: in vivo, humans; details: for % Change After 8 Days, Cholesterol: linear effect p .21; for % Change After 8 Days, LDL: linear effect p .26; for % Change After 8 Days, Triglycerides: linear effect p .50; for % Change After 8 Days, HDL: linear effect p .85; for % Change After 8 Days, Glucose: linear effect p .99
Procedure: as §1, §2, §3

[3] = system: plasma cholesterol and triglycerides; assay: Pig feeding study, plasma cholesterol and triglycerides (Example III, Table C); assay type: in vivo, pigs
Procedure: (§4) A further large mammal study was carried out with pigs. Pigs comprise test animals which are more similar in certain respects to humans than ruminants.
(§5) Control: 60 g. of calcium
(§6) The pigs were housed in pens of two animals each and were allowed ad libitum access to food and water. Pigs were approximately 160 lbs. at the start of the experiment and were 240 lbs. at the end. All pigs were castrate males. At day 28 and day 43 of the experiment blood was collected from the anterior vena cava by venipuncture. Blood was collected into EDTA containing tubes, centrifuged and frozen until analyzed. At approximately 100 days of the experiment half of the animals (32) were slaughtered, and at 120 days the remaining 32 animals were slaughtered. At the time of slaughter the abdominal aorta was dissected out and external fat removed. The aorta was then split lengthwise and 1/2 fixed in formaldehyde for 48 hours. At this time aortas were removed, stretched over a 6 inch stick, washed in ethanol and stained with a lipid stain for 2 hours. After a 1 hour wash aortas were blotted and examined. All the aortas from a group were laid out on a white bench and arranged in order from least sever to most sever. The least sever had no dark red streaks on the aorta or around the small vertebral vessels leaving the aorta. The most sever lesions had multiple streaks in the middle of the aorta and dark red deposits in turbulent areas such as the branching of vessels from the aorta. The ordered aortas were then assigned a consecutive decimal number. The first (least severe) was assigned 0 and the most severe was assigned 3.2 Plasma cholesterol and triglycerides were measured by an enzyme-colorimetric assay (Sigma).
(§7) statistical analysis was accomplished by the general linear model procedure of the Statistical Analysis System (SAS). The model included the main effects of treatment and pen number. T-tests were conducted from the ANOVA standard error, to compare the HMB treatments to the control. […] It appeared that HMB can partially prevent the formation of pre-atherosclerotic lesions. No effect of KIC was noted relative to any parameter.

aorta = assay: Pig feeding study, aorta streaking (pre-atherosclerotic lesions) (Example III, Table C); assay type: in vivo, pigs; details: dietary .05%; 0 least severe to 3.2 most severe; control 1.87; HMB p .06, KIC ns
Procedure: as §4, §5, §6, §7

CC(C)(O)CC(=O)O [Ca-HMB]
% Change After 8 Days, Body fat (%) ([1]; 0.5 g daily): 5%
% Change After 8 Days, Weight ([1]; 0.5 g daily): 1.7%
% Change After 8 Days, Body fat (%) ([1]; 1.0 g daily): -18%
% Change After 8 Days, Weight ([1]; 1.0 g daily): -.3%
% Change After 8 Days, Body fat (%) ([1]; 2 g daily): -15%
% Change After 8 Days, Weight ([1]; 2 g daily): .5%
% Change After 8 Days, Body fat (%) ([1]; 4 g daily): -1%
% Change After 8 Days, Weight ([1]; 4 g daily): .2%
hygroscopicity [2]: less hydroscopic than the sodium or potassium salts
% Change After 8 Days, Cholesterol (blood cholesterol; 0.5 g daily): 6%
% Change After 8 Days, LDL (blood cholesterol; 0.5 g daily): 2%
% Change After 8 Days, Triglycerides (blood cholesterol; 0.5 g daily): 26%
% Change After 8 Days, HDL (blood cholesterol; 0.5 g daily): 0%
% Change After 8 Days, Glucose (blood cholesterol; 0.5 g daily): -7%
% Change After 8 Days, Cholesterol (blood cholesterol; 1.0 g daily): 1%
% Change After 8 Days, LDL (blood cholesterol; 1.0 g daily): 0%
% Change After 8 Days, Triglycerides (blood cholesterol; 1.0 g daily): -16%
% Change After 8 Days, HDL (blood cholesterol; 1.0 g daily): 6%
% Change After 8 Days, Glucose (blood cholesterol; 1.0 g daily): 2%
% Change After 8 Days, Cholesterol (blood cholesterol; 2 g daily): -2%
% Change After 8 Days, LDL (blood cholesterol; 2 g daily): -3%
% Change After 8 Days, Triglycerides (blood cholesterol; 2 g daily): -8%
% Change After 8 Days, HDL (blood cholesterol; 2 g daily): 1%
% Change After 8 Days, Glucose (blood cholesterol; 2 g daily): -5%
% Change After 8 Days, Cholesterol (blood cholesterol; 4 g daily): -4%
% Change After 8 Days, LDL (blood cholesterol; 4 g daily): -6%
% Change After 8 Days, Triglycerides (blood cholesterol; 4 g daily): 36%
% Change After 8 Days, HDL (blood cholesterol; 4 g daily): 0%
% Change After 8 Days, Glucose (blood cholesterol; 4 g daily): -4%

CC(C)CC(=O)C(=O)O [KIC, ketoisocaproic acid, reference compound]
effect relative to any parameter ([3]; 0.05% KIC in diet, aorta streaking, plasma cholesterol, triglycerides): No effect
Plasma Triglycerides ([3]; dietary .05%, control 107, ns): 106 mg %
Plasma Cholesterol ([3]; dietary .05%, control 135, HMB p .05, KIC ns): 139 mg %
Aorta Streaking (aorta): 1.48
